Assay results from patent US20210220374A1, “METHODS OF TREATING TE[…]” (Clarus Therapeutics, Inc., priority 2013, published 2021).

Columns and labels:
[1] = Probability model of serum T Cavg and Cmax distributions (titration dosing modeling); set-up: species or system hypogonadal men; conditions: nominal model parameter, 200 mg T BID as TU, normal distribution
Excerpt: The fractions of the modeled patient population having their serum T Cavg and Cmax values falling within and/or outside of pre-specified limits and categories, as predicted from the probability model, were monitored and tabulated. The categories of interest were those identified by the FDA in its proposed guidelines for safe and effective hormone replacement therapy, as summarized in Table 2.
The probability model was based on the pharmacokinetic results obtained from the hypogonadal patient population that participated in the two multi-dose TU treatments in study LOT-A. As noted previously, 29 hypogonadal males participated in the study, 28 of them completed Treatment Period 1 (300 mg T, as TU, BID) and 24 of them completed Treatment Period 3 (200 mg T, as TU, BID).
Initially, the distribution of the calculated values of Cavg in the treated population was characterized by a mean and standard deviation assuming that the distribution fit either a normal distribution, or a log-normal distribution. […]
Second, a relationship was identified between serum T Cavg and Cmax using linear regression, such that given an hypothesized Cavg value, an expected value of Cmax could be determined (FIG. 5). […]
Fourth, the fraction of a treated population that fell within one of the 7 bins identified in Table 1 was calculated by: • 1. […]

[2] = Example 1 single-day pharmacokinetic study of Formulation B; format: in vivo, hypogonadal men; conditions: 200 mg T equivalents BID with food
Method: The study was designed as an open-label, single-day dosing, sequential, cross-over, pharmacokinetic study.
The doses were administered as capsules to subjects five minutes after a meal (breakfast for QD, and breakfast and dinner for BID).

Q: Which “Mean Cavg (CV)” value [1] does the source give for `CCCCCCCCCCC(=O)O[C@H]1CC[C@H]2[C@@H]3CCC4=CC(=O)CC[C@]4(C)[C@H]3CC[C@]12C` [TU, testosterone undecanoate] here?
A: 520 (39%)

Q: And the “Subjects achieving a serum T Cavg above 300 ng/dL” value [2]?
A: 75%
